Source: patent publication US6291470A, “Indole derivatives process for producing the same and medicinal uses of the same” (Toray Industries, Inc., priority 1992, dated 2001)

Columns and labels:
brain cells = settings: Kokai No. 3-218313; cited from earlier work
[1] = tested on: Cerebral cortex nerve cells; assay: Brain cell-protecting action, MTT method; type: cell-based, rat; settings: study group / control group, 570 nm, 10 μM, 3 days culture
Procedure: The brain cell-protecting action was examined by MTT [3-(4,5-dimethylthiazol-2-yl)-2,5-diphenyltetrazolium bromide] method. MTT yields a dark blue formazan compound by mitochondria in living cells. This compound was dissolved in isopropanol and absorbance at 570 nm was measured, thereby measuring the number of living cells.
Cerebral cortex nerve cells of fetal rats of 17 days old were placed in wells of a 96-well plate at a population density of 1×10^5 cells/cm^2. Then 10 μM of a test compound was added and the cells were cultured in 200 μl of mixed medium of D-MEM/F.12 (1:1) for 3 days (37° C., 5%CO2). In a control group, the medium alone was added Then […] of MTT solution in PBS (6mg/ml) was added and the mixture was allowed to react for 3 hours (37° C., 5% CO2). After removing the culture medium, 100 μl of isopropanol was added and the absorbance was measured.
The ratio of the absorbances of the study group and the control group was employed as an index of brain cell-protecting action.

δ-opioid receptor = target: T1, δ-opioid receptor (Mus musculus, UniProt P32300); assay: δ-opioid antagonist activity against DPDPE in mouse vas deferens (MVD); settings: for Ratio of IC50 Values: DPDPE IC50 with/without 100 nM test compound; for Ratio of IC50 Values / Kb: 20 min; for Kb: against DPDPE, test compound 100 nM, read-out: Ke
T1 construct: from tissue; host or cells: vas deferens of male ddy mice
T1 sequence (P32300 whole entry): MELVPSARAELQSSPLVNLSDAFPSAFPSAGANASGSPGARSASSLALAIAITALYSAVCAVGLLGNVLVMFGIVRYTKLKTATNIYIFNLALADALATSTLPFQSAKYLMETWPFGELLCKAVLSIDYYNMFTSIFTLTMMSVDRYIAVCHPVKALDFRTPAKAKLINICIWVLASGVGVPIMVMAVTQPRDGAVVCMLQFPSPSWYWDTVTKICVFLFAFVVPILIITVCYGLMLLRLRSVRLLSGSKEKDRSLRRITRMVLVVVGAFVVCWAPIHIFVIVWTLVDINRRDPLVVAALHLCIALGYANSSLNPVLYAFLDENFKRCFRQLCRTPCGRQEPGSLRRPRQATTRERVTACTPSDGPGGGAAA
Procedure: Using mouse vas deferens (MVD), the antagonist activity against DPDPE which is a δ-opioid agonist was checked.
In this experiment, ddy male mice were used. In a Magnus' tube which is filled with Krebes-Henseleit solution (NaCl […]; KCl 4.7 mM; CaCl2 2.5 mM; KH2 PO4 1.1 mM; NaHCO3 25 mM; glucose 11 mM) kept at 37° C., and into which an atmosphere consisting of 5% carbon dioxide and 95% oxygen was flown, vas deferens taken from the animals was suspended. Electric stimulation was applied through ring-shaped platinum electrodes mounted on the upper and lower portions of the tube at a frequency of 0.1 Hz and 5.0 mS duration. The contraction of the tissue was recorded on polygraph using isometric transducer.
Then 100 nM of the test compound was added. Twenty minutes later, DPDPE was begun to be added cumulatively. The ratio of IC50 values in the presence and absence of the test compound, Ke value (the molar concentration of the test compound necessary for translating the dose-effect curve to the curve of twice dose) and pA2 value were determined. The pA2 value was determined by the method of Shild et al (Shild, H. O., Br. J. Pharmac. Chamotehr., 4, 277 (1949)). That is, the logarithm of the test compound (log[test compound]) was plotted along the abscissa and the logarithm of the value obtained by subtracting 1 from the ratio of IC50 values was plotted in the presence and absence of the test compound [log(dose ratio-1)] along the ordinate. The pA2 value was determined from the value on the abscissa when the value on the ordinate of the obtained line is 0.

[2] = tested on: delayed type hypersensitivity; assay: Mouse Delayed Type Hypersensitivity Reaction Suppression Test-1 (SRBC); type: in vivo; settings: SRBC sensitization; subcutaneous, everyday from 3 days before sensitization, totally 8 days; BALB/c
Procedure: BALB/c mice (male, 7 weeks old) were used. The mice were classified into groups depending on the body weight, each group consisting of 7-8 mice. Each of the mice was sensitized by subcutaneously administering […] of SRBC (8×10^8 in saline) on the heel of the left hing leg. On day 4 from the sensitization, 25 μl of SRBC (8×10^9 in saline) was subcutaneously administered on the right footpad so as to induce delayed type hypersensitivity. The difference in the thicknesses of the right footpad before the induction of reaction and 24 hours after the induction of the reaction was employed as an index of the degree of the reaction.
The test compound was dissolved in 10% DMSO-water and was subcutaneously administered everyday from 3 days before the sensitization to the day of induction of the reaction, totally 8 days. In the control group, 10% DMSO-water alone was administered in the same manner. The volume of administration was 5 ml/kg in both study groups and in the control group.
The % suppression of the delayed type hypersensitivity reaction was calculated according to the following equation: [formula]
wherein A means the difference in the thickness of the right hind leg before and after the reaction in control group, and B means the difference in the thickness of the right hind leg before and after the reaction in the group to which the test compound was administered.

[3] = tested on: delayed type hypersensitivity; assay: Mouse Delayed Type Hypersensitivity Reaction Suppression Test-2 (donor spleen cells, subcutaneous administration); type: in vivo; settings: C57BL/6 spleen cells; subcutaneous everyday from day of sensitization, totally 8 days; BALB/c
Description: (§1) BALB/c mice (male, 7 weeks old) were used, and each group consisted of 4-5 mice. Spleen cells (1×10^7 ) obtained from a donor mouse (C57BL/6) was subcutaneously administered to sensitize the mice. On Day 7 from the sensitization, the spleen cells (5×10^6) of the donor were subcutaneously administered on the right hing leg and spleen cells (5×10^6) obtained from a mouse of the same line as the recipient mice were subcutaneously administered on the left footpad. Twenty four hours later, the thicknesses of the right and left footpads were measured with a dial thickness gage, and the difference in thicknesses of the right and left footpads before the induction of the reaction and 24 hours after the induction of the reaction was employed as the index of the degree of the reaction.
The test compound was dissolved in 10% DMSO-water and was subcutaneously administered everyday from the day of sensitization to the day of induction of the reaction, totally 8 days. In the control group, 10% DMSO-water alone was administered in the same manner. The volume of administration was 10 ml/kg in both study groups and in the control group. Delayed Type Hypersensitivity Reaction=(thickness of right foodpad after induction-thickness of right footpad before induction)-(thickness of […] before induction) [formula]
wherein C means delayed type hypersensitivity reaction of the group to which the test compound was administered and D means the delayed type hypersensitivity reaction of the group to which vehicle was administered.

contact dermatitis = assay: Mouse Contact Dermatitis Suppression Test (DNFB); type: in vivo; settings: into cerebral ventricle 30 minutes before induction, BALB/c
Procedure: BALB/c mice (male, 13-15 weeks old) were used, and each group consisted of 4 mice. In mixed liquid of acetone: olive oil=4:[…] (DNFB) was dissolved. On Day 0 and Day 1, 0.1% DNFB (50μ) was sensitized to the clipped skin of the abdominal wall, so as to sensitize the mouse. On day 5, 0.15% DNFB (25 μl/ear) was challenged on closal side of each ear love of each mouse, so as to induce the reaction. The compound was administered into cerebral ventricle 30 minutes before the induction.
The contact dermatitis was detected in terms of the increase in the thicknesses of the ears. The thicknesses of the ears were measured before and 24 hours after the challenge by using a dial thickness gage. One ear was taken as n=1, and the increase in the thickness of the ear was used as an index for detecting the contact dermatitis. Contact Dermatitis=(thickness of the ear after challenge)-(thickness of the ear before challenge) [formula]
wherein E means the contact dermatitis of the group to which the compound was administered, and F means the contact dermatitis of the group to which the vehicle was administered.

[4] = tested on: delayed type hypersensitivity; assay: Delayed type hypersensitivity suppression test using mice from which adrenal glands have been removed; type: in vivo, mouse; settings: subcutaneous, totally 8 days
Description: The mechanism of immunosuppression of the compound of the present invention was examined using delayed type hypersensitivity suppression test using mice from which adrenal glands have been removed.
as §1, with “(1×10^7)” for “(1×10^7 )”, “footpad” for “hing leg”, “strain” for “line”
The adrenectomy was performed by cutting the back of each recipient mouse under anesthesia with ether before the sensitization and removing the adrenal gland. Sham operation was performed by cutting the back of each recipient mouse but not removing the adrenal gland.
The test compound was dissolved in 10% DMSO-water and was subcutaneously administered everyday from the day of sensitization to the day of induction of the reaction, totally 8 days. In the control group, 10% DMSO-water alone was administered in the same manner. The volume of administration was 10 ml/kg in both study groups and in the control groups.

[5] = tested on: delayed type hypersensitivity; assay: Mouse Delayed Type Hypersensitivity Reaction Suppression Test-3 (administration into cerebral ventricles); type: in vivo
Description: as §1, with “(1×10^7)” for “(1×10^7 )”, “footpad” for “hing leg”, “strain” for “line”
The test compound was dissolved in water and 5×10^-8 mol/mouse was administered into cerebral ventricles. In the control group, water alone was administered similarly. The dose was 5 μl/mouse in both the study groups and the control group.

| SMILES | Ratio of IC50 Values (δ-opioid receptor) | Kb (δ-opioid receptor) [nM] | % Suppression [2] [%] | % Suppression [3] [%] | other results |
| --- | --- | --- | --- | --- | --- |
| Oc1ccc2c3c1O[C@H]1c4[nH]c5c(c4C[C@@]4(O)[C@@H](C2)N(CC2CC2)CC[C@]314)C[C@@]1(O)[C@H]2Cc3ccc(O)c4c3[C@@]1(CCN2CC1CC1)[C@H]5O4 [nor-BNI, reference compound] |  |  |  |  | brain cell-protecting action (in words) (brain cells): has brain cell-protecting action; Ratio of Absorbances [1]: 7.60 |
| O=[N+]([O-])c1cccc2[nH]c3c(c12)C[C@@]1(O)[C@H]2Cc4ccc(O)c5c4[C@@]1(CCN2CC1CC1)[C@H]3O5 [Compound 78, 17-cyclopropylmethyl-6,7-didehydro-4,5α-epoxy-3,14β-dihydroxy-4'-nitro-6,7-2',3'-indolomorphinan] | 148 | 7.25 | 36 |  |  |
| CCOC(=O)c1cccc2c3c([nH]c12)[C@@H]1Oc2c(O)ccc4c2[C@@]12CCN(CC1CC1)[C@H](C4)[C@]2(O)C3 [Compound 119, 17-cyclopropylmethyl-6,7-didehydro-4,5α-epoxy-3,14β-dihydroxy-7'-ethoxycarbonyl-6,7-2',3'indolomorphinan] | 635 | 0.16 | 12 | 31 | δ-antagonist activity relative to NTI (times that of NTI) (δ-opioid receptor): 1.3-1.6 times |
| N#Cc1ccc2c3c([nH]c2c1)[C@@H]1Oc2c(O)ccc4c2[C@@]12CCN(CC1CC1)[C@H](C4)[C@]2(O)C3 [Compound 53, 17-cyclopropylmethyl-6,7-didehydro-4,5α-epoxy-3,14β-dihydroxy-6'-cyano-6,7-2',3'-indolomorphinan] | 62.3 | 1.63 | 18 |  |  |
| Oc1ccc2c3c1O[C@H]1c4[nH]c5c(-c6ccccc6)cccc5c4C[C@@]4(O)[C@@H](C2)N(CC2CC2)CC[C@]314 [Compound 120, 17-cyclopropylmethyl-6,7-didehydro-4,5α-epoxy-3,14β-dihydroxy-7'-phenyl-6,7-2',3'-indolomorphinan] | 17.0 | 6.25 |  | 46 |  |
| Oc1ccc2c3c1O[C@H]1c4[nH]c5c6c(ccc5c4C[C@@]4(O)[C@@H](C2)N(CC2CC2)CC[C@]314)CCCC6 [Compound 2, 17-cyclopropylmethyl-3,14β-dihydroxy-4,5α-epoxy-6,7-didehydromorphinano[6,7-b]cyclohexeno[g]indole] | 22.1 | 4.74 |  | 60 | suppression of contact dermatitis (contact dermatitis): 44%; % Suppression ([4]; Adrenectomy): 60%; % Suppression ([4]; Sham Operation): 60%; % Suppression ([5]; 5×10^-8 mol/mouse into cerebral ventricles, BALB/c): 83%; suppressive effect relative to NTI (in words) ([5]; into cerebral ventricles, vs NTI): far stronger than NTI |
| CSc1cccc2c3c([nH]c12)[C@@H]1Oc2c(O)ccc4c2[C@@]12CCN(CC1CC1)[C@H](C4)[C@]2(O)C3 [Compound 121, 17-cyclopropylmethyl-6,7-didehydro-4,5α-epoxy-3,14β-dihydroxy-7'-methylthio-6,7-2',3'-indolomorphinan] | 33.6 | 3.07 | 20 |  |  |
| O=[N+]([O-])c1cccc2c3c([nH]c12)[C@@H]1Oc2c(O)ccc4c2[C@@]12CCN(CC1CC1)[C@H](C4)[C@]2(O)C3 [Compound 136, 17-cyclopropylmethyl-6,7-didehydro-4,5α-epoxy-3,14β-dihydroxy-7'-nitro-6,7-2',3'-indolomorphinan] | 192 | 0.52 | 18 |  |  |
| CSc1ccc2c3c([nH]c2c1)[C@@H]1Oc2c(O)ccc4c2[C@@]12CCN(CC1CC1)[C@H](C4)[C@]2(O)C3 [Compound 43, 17-cyclopropylmethyl-6,7-didehydro-4,5α-epoxy-3,14β-dihydroxy-6'-methylthio-6,7-2',3'-indolomorphinan] | 168 | 0.6 | 26 | 27 |  |
